Measurements from article PMC6154466, “Design, Synthesis, Molecular Docking Analysis, and Carbonic Anhydrase IX Inhibitory Evaluations of Novel N-Substituted-β-D-Glucosamine Derivatives that Incorporate Benzenesulfonamides” (Molecules : A Journal of Synthetic Chemistry and Natural …, 2017).

How the values were obtained:
[1] = molecular target: T1, Recombinant human carbonic anhydrase IX (Homo sapiens, UniProt Q16790); test: hCA IX inhibition, 4-nitrophenyl acetate (4-NPA) esterase assay; type: biochemical; conditions: mean ± standard error
T1 construct: purchased Sino Biological Inc, Beijing, China
Experimental: Carbonic anhydrases are able to catalyze the conversion 4-nitrophenyl acetate (4-NPA) to 4-nitrophenol. […] One × Assay buffer is composed of 15 mmol/L 4-(2-hydroxyethyl)-1-piperazineethanesulfonic acid (HEPES) (pH = 7.4), 0.01% tetraethylene glycol monododecyl ether (BRIJ) and 100 mmol/L NaCl. […] Then, 18 μL of enzyme solution was transferred into 384-well assay plates in triplicate. Stock solutions of the inhibitor (10 mmol/L) were prepared using DMSO as solvent, and then diluted 1:3 with DMSO. […] The normalized data were then fit to a sigmoidal dose-response curve using GraphPad Prism 5.0 software, La Jolla, CA, USA to obtain the IC50. Final enzyme concentration was 5 ng/μL.

[2] = system: CA IX over intracellular CA I; set-up: method as in PMID 25254302; conditions: cited from earlier work
[3] = system: CA IX over intracellular CA II; set-up: method as in PMID 25254302; conditions: cited from earlier work

SMILES	IC50 [1]	melting point	selectivity for CA IX over CA I [2]	selectivity for CA IX over CA II [3]
NS(=O)(=O)c1ccc(NC(=S)N[C@@H]2O[C@H](CO)[C@@H](O)[C@H](O)[C@H]2NS(=O)(=O)c2ccc([N+](=O)[O-])cc2)cc1 [Compound 7j, N-[4-(Aminosulfonyl)phenyl]-N′-[2′-(4′-nitrobenzenesulfonylamino)-2′-deoxy-β-D-glucopyranosyl]thiourea]	25.4 ± 3.8 nM	174.7 to 176 °C	–	–
CN(C)S(=O)(=O)N[C@@H]1[C@@H](O)[C@H](O)[C@@H](CO)O[C@H]1NC(=S)Nc1ccc(S(N)(=O)=O)cc1 [Compound 7q, N-[4-(Aminosulfonyl)phenyl]-N′-[2′-(N′,N′-dimethylsulfonylamino)-2′-deoxy-β-D-glucopyranosyl]thiourea]	72.1 ± 6.15 nM	157.4 to 159.4 °C	–	–
N#Cc1ccc(S(=O)(=O)N[C@@H]2[C@@H](O)[C@H](O)[C@@H](CO)O[C@H]2NC(=S)Nc2ccc(S(N)(=O)=O)cc2)cc1 [Compound 7m, N-[4-(Aminosulfonyl)phenyl]-N′-[2′-(4′-cyanobenzenesulfonylamino)-2′-deoxy-β-D-glucopyranosyl]thiourea]	21.9 ± 0.49 nM	169 to 170.6 °C	–	–
NS(=O)(=O)c1ccc(NC(=S)N[C@@H]2O[C@H](CO)[C@@H](O)[C@H](O)[C@H]2NS(=O)(=O)c2ccc(Br)cc2)cc1 [Compound 7h, N-[4-(Aminosulfonyl)phenyl]-N′-[2′-(4′-bromobenzenesulfonylamino)-2′-deoxy-β-D-glucopyranosyl]thiourea]	21.3 ± 1.29 nM	174.1 to 176 °C	–	–
CCCS(=O)(=O)NC1C(NC(=S)Nc2ccc(S(N)(=O)=O)cc2)OC(CO)C(O)C1O [Compound 7p, N-[4-(Aminosulfonyl)phenyl]-N′-(2′-n-propylsulfonylamino-2′-deoxy-β-D-glucopyranosyl)thiourea]	389 ± 27.7 nM	159.1 to 160.6 °C	–	–
NS(=O)(=O)c1ccc(NC(=S)N[C@@H]2O[C@H](CO)[C@@H](O)[C@H](O)[C@H]2NS(=O)(=O)c2ccc3ccccc3c2)cc1 [Compound 7n, N-[4-(Aminosulfonyl)phenyl]-N′-[2′-(naphthalene-2′-sulfonylamino)-2′-deoxy-β-D-glucopyranosyl]thiourea]	24.78 ± 0.05 nM	182.7 to 184.6 °C	–	–
NS(=O)(=O)c1ccc(NC(=S)N[C@@H]2O[C@H](CO)[C@@H](O)[C@H](O)[C@H]2NS(=O)(=O)c2cccc(Br)c2)cc1 [Compound 7i, N-[4-(Aminosulfonyl)phenyl]-N′-[2′-(3′-bromobenzenesulfonylamino)-2′-deoxy-β-D-glucopyranosyl]thiourea]	12.6 ± 0.96 nM	172.9 to 174.7 °C	–	–
Cc1ccc(S(=O)(=O)NC2C(NC(=S)Nc3ccc(S(N)(=O)=O)cc3)OC(CO)C(O)C2O)cc1 [Compound 7a, N-[4-(Aminosulfonyl)phenyl]-N′-[2′-(4′-methylbenzenesulfonylamino)-2′-deoxy-β-D-glucopyranosyl]thiourea]	21.8 ± 3.18 nM	159.5 to 161.2 °C	–	–
COc1ccc(S(=O)(=O)N[C@@H]2[C@@H](O)[C@H](O)[C@@H](CO)O[C@H]2NC(=S)Nc2ccc(S(N)(=O)=O)cc2)cc1 [Compound 7c, N-[4-(Aminosulfonyl)phenyl]-N′-[2′-(4′-methoxybenzenesulfonylamino)-2′-deoxy-β-D-glucopyranosyl]thiourea]	23.8 ± 0.51 nM	165 to 166.3 °C	–	–
CC(=O)NC1C(NC(=S)Nc2ccc(S(N)(=O)=O)cc2)OC(CO)C(O)C1O [Compound 9b, N-[4-(Aminosulfonyl)phenyl]-N′-(2′-acetylamino-2′-deoxy-β-D-glucopyranosyl)thiourea]	176 ± 9.45 nM	151.1 to 152.9 °C	–	–
Cc1ccccc1S(=O)(=O)N[C@@H]1[C@@H](O)[C@H](O)[C@@H](CO)O[C@H]1NC(=S)Nc1ccc(S(N)(=O)=O)cc1 [Compound 7b, N-[4-(Aminosulfonyl)phenyl]-N′-[2′-(2′-methylbenzenesulfonylamino)-2′-deoxy-β-D-glucopyranosyl]thiourea]	21.9 ± 0.37 nM	175.2 to 177.1 °C	–	–
NS(=O)(=O)OCCCCCNS(=O)(=O)[C@@H]1O[C@H](CO)[C@@H](O)[C@H](O)[C@H]1O [Compound A]	–	–	1200 fold	3200 fold
CCS(=O)(=O)N[C@@H]1[C@@H](O)[C@H](O)[C@@H](CO)O[C@H]1NC(=S)Nc1ccc(S(N)(=O)=O)cc1 [Compound 7o, N-[4-(Aminosulfonyl)phenyl]-N′-(2′-ethylsulfonylamino-2′-deoxy-β-D-glucopyranosyl)thiourea]	66.9 ± 3.26 nM	164.8 to 166.2 °C	–	–
NS(=O)(=O)c1ccc(NC(=S)N[C@@H]2O[C@H](CO)[C@@H](O)[C@H](O)[C@H]2NS(=O)(=O)c2ccc(Cl)cc2)cc1 [Compound 7g, N-[4-(Aminosulfonyl)phenyl]-N′-[2′-(4′-chlorobenzenesulfonylamino)-2′-deoxy-β-D-glucopyranosyl]thiourea]	26.9 ± 0.28 nM	167.2 to 168.8 °C	–	–
NS(=O)(=O)c1ccc(NC(=S)N[C@@H]2O[C@H](CO)[C@@H](O)[C@H](O)[C@H]2NS(=O)(=O)c2cccc([N+](=O)[O-])c2)cc1 [Compound 7l, N-[4-(Aminosulfonyl)phenyl]-N′-[2′-(3′-nitrobenzenesulfonylamino)-2′-deoxy-β-D-glucopyranosyl]thiourea]	18.9 ± 0.33 nM	177.3 to 179.2 °C	–	–
NS(=O)(=O)c1ccc(NC(=S)N[C@@H]2O[C@H](CO)[C@@H](O)[C@H](O)[C@H]2NS(=O)(=O)c2cc(F)cc(F)c2)cc1 [Compound 7e, N-[4-(Aminosulfonyl)phenyl]-N′-[2′-(3′,5′-difluorobenzenesulfonylamino)-2′-deoxy-β-D-glucopyranosyl]thiourea]	11.5 ± 0.93 nM	164.4 to 165.2 °C	–	–
CC(=O)NC1C(NC(=S)Nc2ccc(S(N)(=O)=O)cc2)OC(COC(C)=O)C(OC(C)=O)C1OC(C)=O [Compound 9a, N-[4-(Aminosulfonyl)phenyl]-N′-(2′-acetylamino-3′,4′,6′-tri-O-acetyl-2′-deoxy-β-D-glucopyranosyl)thiourea]	1290 ± 141 nM	141.8 to 142.9 °C	–	–
NS(=O)(=O)c1ccc(NC(=S)N[C@@H]2O[C@H](CO)[C@@H](O)[C@H](O)[C@H]2NS(=O)(=O)c2ccc(F)cc2)cc1 [Compound 7d, N-[4-(Aminosulfonyl)phenyl]-N′-[2′-(4′-fluorobenzenesulfonylamino)-2′-deoxy-β-D-glucopyranosyl]thiourea]	25.6 ± 2.15 nM	178 to 179.6 °C	–	–
NS(=O)(=O)c1ccc(NC(=S)N[C@@H]2O[C@H](CO)[C@@H](O)[C@H](O)[C@H]2NS(=O)(=O)c2cccs2)cc1 [Compound 7r, N-[4-(Aminosulfonyl)phenyl]-N′-[2′-(thiophene-2′-sulfonylamino)-2′-deoxy-β-D-glucopyranosyl]thiourea]	65.8 ± 0.08 nM	172.8 to 174 °C	–	–
NS(=O)(=O)c1ccc(NC(=S)NC2OC(CO)C(O)C(O)C2NS(=O)(=O)c2ccc(C(F)(F)F)cc2)cc1 [Compound 7f, N-[4-(Aminosulfonyl)phenyl]-N′-[2′-(4′-trifluoromethylbenzenesulfonylamino)-2′-deoxy-β-D-glucopyranosyl]thiourea]	10 ± 0.23 nM	164 to 165.4 °C	–	–
NS(=O)(=O)c1ccc(NC(=S)N[C@@H]2O[C@H](CO)[C@@H](O)[C@H](O)[C@H]2NS(=O)(=O)c2ccccc2[N+](=O)[O-])cc1 [Compound 7k, N-[4-(Aminosulfonyl)phenyl]-N′-[2′-(2′-nitrobenzenesulfonylamino)-2′-deoxy-β-D-glucopyranosyl]thiourea]	15.6 ± 0.44 nM	169.7 to 171.7 °C	–	–
